Data on 3 compounds can be found in US10859565B2, “High throughput 3D assay for immune cell and drug homing, migration and tumor cytotoxicity” (Corning Incorporated, priority 2017, dated 2020).

What all share (type): cell-based
The test system of one data set is NK-92MI cells. Nature of the data set: NK-92MI (NK) cell migration through HTS Transwell towards A549/GFP 3D tumor spheroids, flow cytometry. The settings on record: 24 hours. The procedure:
(§1) A549/GFP Cells (Cell Biolabs, Inc. Cat. No. AKR-209), were seeded into 96 well spheroid microplates (Corning Cat. No. 4515) at 2,000 cells per well in Iscove's Modification of DMEM (IMDM) (Corning Cat. No. 10-016-CM) supplemented with 10% fetal bovine serum (FBS) (Corning Cat. No. 35-010-CV). The next day, medium was replaced with […] IMDM 10% FBS containing 30 ng/mL of Human SDF-1 alpha (SDF-1α)/CXCL12 (Shenandoah Biotechnology Inc™ Cat. No. 100-20) or vehicle control. NK92-MI cells were stained for one hour with 80 μM CellTracker™ Blue CMHC Dye (Molecular Probes™ Cat. No. C2110) while simultaneously being treated with 2 μg/mL prostaglandin E2 (PGE2) (Tocris Cat. No. 2296) or vehicle control in IMDM without serum for an hour. NK-92MI cells were then re-suspended in serum free IMDM and seeded into the apical chamber of the inserts at 50,000 cells/insert. After 24 hours, inserts were removed and spheroid microplates were processed for flow cytometry. […] Cells were then analyzed via flow cytometry utilizing the Miltenyi Biotec MacsQuant®.
(§2) NK-92MI migration and tumoricidal activity of A549/GFP cells was assessed utilizing the commercially available Corning HTS 96 Transwell inserts with the Corning 96 well spheroid microplate, as shown in FIG. 4 and FIG. 5. […]

The next data set deals with LN229 spheroids. In words: Cytotoxicity of LN229 spheroids after direct culture with compounds. The settings on record: 48 hours of direct culture; N=12 wells per concentration.
In another data set the test system is A549/GFP tumor cells. Nature of the data set: NK induced cytotoxicity of A549/GFP tumor cells cultured in 3D. The note with it: NK cells exposed to SDF-1α without PGE2; 24 hours. The procedure:
as §1, §2

As for `CCCCC[C@H](O)/C=C/[C@H]1[C@H](O)CC(=O)[C@@H]1C/C=C\CCCC(=O)O` [PGE2, prostaglandin E2], the NK migration result in the data set with NK-92MI cells (NK cells exposed to 2 μg/mL PGE2 for an hour) is listed as “significantly decreased”.
Turning to `COc1cc(/C=C/C(=O)N2CCC=CC2=O)cc(OC)c1OC` [Piperlongumine], the “cytotoxicity of LN229 spheroids” value in the data set on LN229 spheroids was “dose dependent cytotoxicity”.
As for SDF-1α, the NK migration entry with NK-92MI cells (30 ng/mL SDF-1α present with the tumor spheroid in the spheroid microplate) is “significantly increased”. Also, the “viability of A549/GFP tumor cells (tumoricidal activity of NK cells)” value in the data set with A549/GFP tumor cells was “lowest viability”.
